Assay results taken from EP2253629A1, “Polymorphs of racemic sunitinib malate, compositions containing them and preparation thereof” (Teva Pharmaceutical Industries Ltd., priority 2007, dated 2009).

Assay: solubility in water
Type: physicochemical

CCN(CC)CCNC(=O)c1c(C)[nH]c(/C=C2\C(=O)Nc3ccc(F)cc32)c1C [sunitinib base form VIII, N-[2-(diethylamino)ethyl]-5-[(Z)-(5-fluoro-1,2-dihydro-2-oxo-3H-indol-3-ylidine)methyl]-2,4-dimethyl-1 H-pyrrole-3-carboxamide]
solubility: < 1000 µg/mL
